3 compounds from publication PMC12584634, “Carglumic acid and mesalazine as potential anti-mycobacterial agents: a spectroscopic study for repurposing drugs against Mycobacterium tuberculosis targeting its essential enzyme ThyX” (Microbiology Spectrum, 2025) can be followed below.

This assay has as its target ThyX (Rv2754c), flavin-dependent thymidylate synthase (Mycobacterium tuberculosis, UniProt P9WG57). The experiment in a line: intrinsic fluorescence quenching, modified Stern-Volmer. It is filed as binding. The conditions noted are these: 303 K, 5 µM protein, n ~1, double-log. The text has this:
intrinsic fluorescence quenching, modified Stern-Volmer on ThyX (Rv2754c), flavin-dependent thymidylate synthase

Sequence of ThyX (Rv2754c), flavin-dependent thymidylate synthase (P9WG57 whole entry, looked up): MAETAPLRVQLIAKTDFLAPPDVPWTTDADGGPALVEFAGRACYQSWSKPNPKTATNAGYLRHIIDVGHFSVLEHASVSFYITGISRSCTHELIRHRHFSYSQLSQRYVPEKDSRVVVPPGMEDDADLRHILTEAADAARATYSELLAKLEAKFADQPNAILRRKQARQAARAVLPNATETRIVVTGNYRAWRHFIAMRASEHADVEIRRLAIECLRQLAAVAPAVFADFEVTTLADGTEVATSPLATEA

Take `NC(=O)N[C@@H](CCC(=O)O)C(=O)O` [carglumic acid]: the “Ka (× 10^6 mol^-1)” value (PBS pH 7.4, excitation 280 nm) is given as 4.28 × 10^6 mol^−1. For the compound `Nc1ccc(O)c(C(=O)O)c1` [mesalazine], the “Ka (× 10^6 mol^-1)” value (PBS pH 7.4, excitation 280 nm) was 4.73 × 10^6 mol^−1.

For `Nc1ccc(C(=O)O)c(O)c1` [para-amino salicylic acid, reference compound], for the setting “positive control, text prints unit as M^−1s^−1”, the “Ka (× 10^6 mol^-1)” value is listed as 3.44 × 10^6 mol^−1.
